Laboratory results taken from US9765063B2, “Amido compounds as RORγt modulators and uses thereof” (New York University, priority 2011, dated 2017).
Entries after “also recorded” stand apart in the source; their conditions may differ. Read-outs that look alike come from different tables or passages of the source.

Assays:
Type in all cases: cell-based
RORγt [1] = molecular target: T1, RORγt (Mus musculus, UniProt P51450); test: RORγt S2 cell reporter assay (Gal4-RORγt fusion, UAS-luciferase)
T1 construct: expressed in transfected cells; the other entry of the earlier key: GAL4 (P04386, Regulatory protein GAL4)
T1 sequence (P51450 with tags, fused parts or gaps): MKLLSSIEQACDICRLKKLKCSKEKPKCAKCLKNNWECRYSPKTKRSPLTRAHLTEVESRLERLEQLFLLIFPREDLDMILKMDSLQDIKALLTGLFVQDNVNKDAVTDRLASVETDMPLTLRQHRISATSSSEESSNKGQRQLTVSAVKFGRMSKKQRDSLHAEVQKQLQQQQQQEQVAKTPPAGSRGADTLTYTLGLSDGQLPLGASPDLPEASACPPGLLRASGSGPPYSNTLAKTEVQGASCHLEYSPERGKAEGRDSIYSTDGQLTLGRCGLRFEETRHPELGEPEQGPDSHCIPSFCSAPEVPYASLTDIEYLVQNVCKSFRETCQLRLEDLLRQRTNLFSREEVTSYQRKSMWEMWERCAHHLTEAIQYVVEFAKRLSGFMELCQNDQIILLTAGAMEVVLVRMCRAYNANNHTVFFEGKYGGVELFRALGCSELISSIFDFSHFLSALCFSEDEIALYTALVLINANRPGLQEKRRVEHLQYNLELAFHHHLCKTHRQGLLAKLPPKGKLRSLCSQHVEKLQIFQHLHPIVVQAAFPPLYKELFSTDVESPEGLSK
Excerpt: Methods: The Drosophila S2 cell line was originally purchased from Invitrogen and was maintained in Schneider's medium supplemented with 10% heat-inactivated bovine fetal calf serum and antibiotics (Invitrogen). […] The resulting chimeric gene was subcloned into the copper inducible pMT/V5-His A vector (available from Invitrogen).
Renilla luciferase construct under the polIII promoter was obtained from Dr. Dasgupta's laboratory (NYU medical center). In order to generate stable cell lines, cells were co-transfected with pMT-G4DBD-RORγt, pMT-G4DBD-RORα, pMT-G4DBD-DHR3, or pMT-G4DBDVP16 and pHygro plasmids (Invitrogen) and screened for resistant colonies in the presence of hygromycin (0.3 mg/mL). […] Using similar methods, stable clones with genomic integration of the luciferase reporters and other reporters were generated such as pMT-RORα_luc, pMT-DHR3_luc, or pMT-VP16_luc.
Methods: 600 G4DBD-RORγ/γt-luc reporter (#25) or G4DBD-VP16-luc reporter cells were distributed into each well of 1,536-well white bottom plates in 4 μl S2 cell culture volume containing hygromicin (300 μg/ml) and puromycin (2 μg/ml). […] After one-hour incubation, 1 of culture medium solution containing copper sulfate (to final 0.7 mM) and 10 μM RORγ/γt antagonists were added to each well. After 20-hour incubation at ambient temperature, 1.5 μl firefly luciferase detection mix was added and the luciferase activities were measured in 10 min. ViewLux luminometers were used for measuring luciferase signal.
A cell-based reporter assay was used to detect RORγt-mediated activity. This assay, called RORγt employed Drosophila Schneider cells that were stably transfected with two vectors: a gene expressing a fusion of the Gal4 DNA binding domain and RORγt transactivation domain under the control of the metallothionine promoter and a Photinus luciferase reporter regulated by the Gal4 binding site enhancer, UAS. […] Cells (600/well) were dispensed into white solid 1536-well plates (Greiner) using a solenoid-based dispenser. Following transfer of […] compound or DMSO vehicle by a pin tool, the plates were incubated 1 hr at ambient temperature, and 1 uL/well copper sulfate (700 uM final concentration) was added. The plates were centrifuged 15 s at 1000 RPM and incubated 20 hr at ambient temperature. After addition of 1.5 uL Photinus luciferase detection reagent, the plates were incubated 10 min at ambient temperature and then read by a ViewLux (Perkin Elmer) to detect luminescence. […] Efficacy is expressed as % of the maximal response of control inhibitor (Digoxin), set at 100%.

[2] = tested on: mouse Th17 cell differentiation; test: Th17 assay: mouse Th17 polarization (IL-17a producing cells, FACS)
Procedure: (§1) Percentage of DMSO treated IL-17a producing cells was set at 100. Naive mouse CD4 T cells (CD25^−, CD62L^+, and CD44^low-int) were sorted and cultured with CD3/CD28 stimulatory antibodies in the presence of TGFβ (0.1 ng/ml) and IL6 (20 ng/ml). Compounds were added on Day 1 and cells were analyzed on Day 4. For intracellular cytokine staining, cells were incubated for 5 h with phorbol ester (50 ng/ml; Sigma), ionomycin (500 ng/ml; Sigma) and GolgiStop (BD). When needed, surfaces were stained by incubation for 15 min on ice with PECy7-conjugated CD4 (BD Biosciences). The Cytofix/Cytoperm buffer set (BD) was used for intracellular staining. Cells were fixed and made permeable for 30 min on ice and were stained for 30 min on ice in permeabilization buffer with Alexa647-conjugated anti-IL17a (eBioscience) and PE-conjugated anti-IFNg (eBioscience). An LSR II (BD Biosciences) and FlowJo software (Tree Star) were used for flow cytometry. RORg IC50 value acquired from the S2 cell reporter assay is listed for comparison.
as §1, with “With respect to the methodological details pertaining to FIG. 1, naive” for “Percentage of DMSO treated IL-17a producing cells was set at 100. Naive mouse”, “(BD).” for “(BD). When needed, surfaces were stained by incubation for 15 min on ice with PECy7-conjugated CD4 (BD Biosciences).”, “anti-IFNγ” for “anti-IFNg”, “cytometry.” for “cytometry. RORg IC50 value acquired from the S2 cell reporter assay is listed for comparison.”

[3] = tested on: human Th1 cell differentiation; test: Human Th1 cell differentiation, IFNγ production (counter-screen, FIG. 2); details: FIG. 2, FACS, 0.5 μM, naive CD4 T cells, IL12 and IL2; listed as NCGC00242624
Procedure: For Th1 differentiation, IL12 (10 ng/ml) and IL2 (100 U/ml) were added to naive CD4 T cell cultures instead of TGFβ and IL6.

RORγt [4] = test: RORγt overexpression dependent IL17a production in human CD4 T cells (FIG. 3); details: FIG. 3, FACS, 0.5 μM; listed as NCGC00242624
Procedure: (§2) Briefly, CD3+ CD4+ CD45RA+ naive human T cells were isolated from peripheral blood derived from healthy donors. The naive T cells were cultured in XVIVO-20 (Lonza) medium for 7 days in the presence of IL2 and stimulatory CD3 and CD28 antibodies. Cells were infected with lentivirus encoding human RORα or RORγ and compound or DMSO was added on day 2. FACS plot analysis is shown after gating on GFP expressing (virus infected) cells.

RORα = RORα overexpression dependent IL17a production in human CD4 T cells (FIG. 3); details: FIG. 3, FACS, 0.5 μM; listed as NCGC00242624
Procedure: as §2

IC50 (RORγt [1]; Table 1, Drosophila S2 cells, luciferase reporter, read-out: IC50): 1000 to 10000 nM
IC50 (RORγt [1]; Table 2, from the S2 cell reporter assay, listed for comparison, read-out: S2 cell RORg IC50): < 1000 nM
IC50 ([2]; naive mouse CD4 T cells, TGFβ and IL6, compounds added Day 1, analyzed Day 4, read-out: Th 17 IC50): 1000 to 10000 nM
Compound: COc1cc(O)c(C(CC(=O)N2CC(C)CC(C)C2)c2ccc(C(=O)O)cc2)c(OC)c1 (stereo not shown) [Compound 99, 4-(3-(3,5-Dimethylpiperidin-1-yl)-1-(2-hydroxy-4,6-dimethoxyphenyl)-3-oxopropyl)benzoic acid]
mouse Th17 cell differentiation, as measured by IL17a production ([2]; FIG. 1, FACS, at the indicated concentrations, listed as NCGC00242624): suppresses mouse Th17 cell differentiation with similar activity to NCGC00238427; also recorded: suppress mouse Th17 cell differentiation
Th1 cell differentiation, as measured by IFNγ production [3]: does not inhibit Th1 cell differentiation
RORγt overexpression dependent IL17a production in human CD4 T cells (RORγt [4]): selectively inhibit RORγt dependent; also recorded: selectively inhibits RORγt overexpression dependent IL17a production
RORα overexpression dependent IL17a production in human CD4 T cells (RORα): unaffected
